Drawing on US20230139171A1 (SITA Information Networking Computing UK Limited, priority 2019, published 2023), this text covers IC50 for eleven molecules.

Format in all cases: cell-based
The target of assay [1] is T1, human TLR7 (Homo sapiens, UniProt Q9NYK1).
T1 construct: host or cells: HEK-Blue cells
T1 sequence (Q9NYK1 27-1049): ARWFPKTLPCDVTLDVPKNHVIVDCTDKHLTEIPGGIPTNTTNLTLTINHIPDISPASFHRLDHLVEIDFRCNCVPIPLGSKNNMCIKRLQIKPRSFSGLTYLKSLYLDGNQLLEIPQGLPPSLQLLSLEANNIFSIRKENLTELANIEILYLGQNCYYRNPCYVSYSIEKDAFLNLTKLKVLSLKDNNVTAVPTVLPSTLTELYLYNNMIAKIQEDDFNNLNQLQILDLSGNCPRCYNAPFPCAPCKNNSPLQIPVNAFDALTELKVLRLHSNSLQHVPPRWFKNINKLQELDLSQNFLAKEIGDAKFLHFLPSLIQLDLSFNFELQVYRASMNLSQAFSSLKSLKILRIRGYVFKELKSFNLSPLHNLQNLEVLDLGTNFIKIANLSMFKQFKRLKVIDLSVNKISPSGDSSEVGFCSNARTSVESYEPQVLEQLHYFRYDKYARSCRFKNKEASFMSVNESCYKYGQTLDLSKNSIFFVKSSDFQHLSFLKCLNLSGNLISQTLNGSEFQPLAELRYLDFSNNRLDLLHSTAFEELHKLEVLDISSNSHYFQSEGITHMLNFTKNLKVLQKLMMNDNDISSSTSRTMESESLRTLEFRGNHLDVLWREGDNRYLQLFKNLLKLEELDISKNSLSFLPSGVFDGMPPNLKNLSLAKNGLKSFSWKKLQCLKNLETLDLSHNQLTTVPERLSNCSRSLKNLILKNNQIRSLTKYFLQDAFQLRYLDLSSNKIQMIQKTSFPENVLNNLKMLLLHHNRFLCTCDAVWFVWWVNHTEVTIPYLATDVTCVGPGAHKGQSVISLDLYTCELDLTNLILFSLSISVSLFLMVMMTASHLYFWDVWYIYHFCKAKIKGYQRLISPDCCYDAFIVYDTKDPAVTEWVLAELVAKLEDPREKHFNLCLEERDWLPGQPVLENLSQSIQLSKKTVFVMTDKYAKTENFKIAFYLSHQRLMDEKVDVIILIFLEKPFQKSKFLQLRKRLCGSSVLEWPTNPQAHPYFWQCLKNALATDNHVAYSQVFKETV
In words: TLR7 inhibition reporter assay (HEK-Blue cells, SEAP reporter, gardiquimod stimulation). Particulars: HEK-Blue cells overexpressing human TLR7, SEAP reporter, gardiquimod 7.5 μM; read-out: TLR7 IC50. A digest of the protocol:
(§1)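 Dose–response from 0.05 nM to 50 μM was run in HEK-Blue human TLR7, TLR8 and TLR9 reporter cells. After 30 min at room temperature with compound, ligand was added (TLR7 gardiquimod 7.5 μM; TLR8 R848 15.9 μM; TLR9 ODN2006 5 nM) and SEAP measured next day, at 22 h.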

In assay [2] the target is T2, human TLR8 (Homo sapiens, UniProt Q9NR97).
T2 construct: host or cells: HEK-Blue cells
T2 sequence (Q9NR97 27-1041): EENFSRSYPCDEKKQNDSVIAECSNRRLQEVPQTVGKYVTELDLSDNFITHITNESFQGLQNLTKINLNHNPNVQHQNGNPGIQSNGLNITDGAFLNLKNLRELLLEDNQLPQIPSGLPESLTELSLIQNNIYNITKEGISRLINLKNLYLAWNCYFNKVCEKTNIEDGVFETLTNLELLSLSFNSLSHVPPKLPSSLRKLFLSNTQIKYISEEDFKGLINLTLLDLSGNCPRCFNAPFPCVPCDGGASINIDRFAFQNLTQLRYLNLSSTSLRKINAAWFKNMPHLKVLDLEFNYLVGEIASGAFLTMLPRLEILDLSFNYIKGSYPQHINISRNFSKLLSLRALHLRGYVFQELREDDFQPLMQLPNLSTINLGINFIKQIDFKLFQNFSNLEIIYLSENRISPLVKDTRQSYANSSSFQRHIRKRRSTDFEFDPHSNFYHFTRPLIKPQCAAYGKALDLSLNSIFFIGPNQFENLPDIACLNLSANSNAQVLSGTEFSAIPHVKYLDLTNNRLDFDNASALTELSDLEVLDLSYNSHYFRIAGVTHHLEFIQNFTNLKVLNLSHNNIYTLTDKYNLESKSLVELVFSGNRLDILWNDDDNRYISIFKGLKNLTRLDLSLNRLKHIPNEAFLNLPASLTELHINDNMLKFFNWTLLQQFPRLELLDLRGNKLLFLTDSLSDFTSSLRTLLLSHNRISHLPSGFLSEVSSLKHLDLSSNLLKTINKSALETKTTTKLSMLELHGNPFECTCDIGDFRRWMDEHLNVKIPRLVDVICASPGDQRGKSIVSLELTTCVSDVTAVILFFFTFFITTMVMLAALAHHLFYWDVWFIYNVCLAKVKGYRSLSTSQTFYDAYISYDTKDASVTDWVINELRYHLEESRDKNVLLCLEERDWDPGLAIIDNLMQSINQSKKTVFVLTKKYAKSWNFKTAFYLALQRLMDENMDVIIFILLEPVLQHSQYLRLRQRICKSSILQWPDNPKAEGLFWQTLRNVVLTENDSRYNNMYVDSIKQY
Nature of the assay: TLR8 inhibition reporter assay (HEK-Blue cells, SEAP reporter, R848 stimulation). The conditions noted are these: HEK-Blue cells overexpressing human TLR8, SEAP reporter, R848 15.9 μM; read-out: TLR8 IC50. A digest of the protocol: as §1
For orientation: In a reporter assay the amount or activity of a reporter protein is the signal.

For assay [3], the target named is T3, human TLR9 (Homo sapiens, UniProt Q9NR96).
T3 construct: host or cells: HEK-Blue cells
T3 sequence (Q9NR96 26-1032): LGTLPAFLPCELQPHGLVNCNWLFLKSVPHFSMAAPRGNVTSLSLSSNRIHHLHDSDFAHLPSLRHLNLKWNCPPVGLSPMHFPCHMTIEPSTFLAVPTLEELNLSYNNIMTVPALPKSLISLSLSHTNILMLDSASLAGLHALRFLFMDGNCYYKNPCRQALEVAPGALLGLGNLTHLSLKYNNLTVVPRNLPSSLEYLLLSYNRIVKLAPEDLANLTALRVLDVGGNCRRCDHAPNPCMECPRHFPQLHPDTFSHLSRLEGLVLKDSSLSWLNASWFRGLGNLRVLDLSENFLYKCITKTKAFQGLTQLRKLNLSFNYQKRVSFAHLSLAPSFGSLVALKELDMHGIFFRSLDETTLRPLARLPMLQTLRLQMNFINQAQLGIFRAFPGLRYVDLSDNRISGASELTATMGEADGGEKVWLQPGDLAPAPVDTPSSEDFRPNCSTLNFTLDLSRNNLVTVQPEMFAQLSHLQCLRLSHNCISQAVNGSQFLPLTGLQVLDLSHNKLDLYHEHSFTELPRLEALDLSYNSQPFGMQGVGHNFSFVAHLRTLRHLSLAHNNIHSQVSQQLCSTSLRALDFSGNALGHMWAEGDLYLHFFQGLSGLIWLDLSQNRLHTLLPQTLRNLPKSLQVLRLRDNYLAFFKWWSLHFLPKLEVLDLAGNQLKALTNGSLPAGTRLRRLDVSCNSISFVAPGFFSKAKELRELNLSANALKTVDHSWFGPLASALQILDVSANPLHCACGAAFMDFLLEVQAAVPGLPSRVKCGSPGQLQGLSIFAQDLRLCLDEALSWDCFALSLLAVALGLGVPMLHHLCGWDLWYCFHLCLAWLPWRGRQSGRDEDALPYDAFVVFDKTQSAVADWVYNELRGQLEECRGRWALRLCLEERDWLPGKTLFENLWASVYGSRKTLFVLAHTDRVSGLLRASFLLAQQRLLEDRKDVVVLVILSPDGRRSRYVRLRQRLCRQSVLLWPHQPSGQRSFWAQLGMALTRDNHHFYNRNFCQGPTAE
In words: TLR9 inhibition reporter assay (HEK-Blue cells, SEAP reporter, ODN2006 stimulation). The conditions noted are these: HEK-Blue cells overexpressing human TLR9, SEAP reporter, ODN2006 5 nM. In a few lines: as §1

As usually defined, the IC50 is the concentration at which inhibition is half-maximal.

In the case of `Cc1c(-c2[nH]c3sc(N4CCN(C5CCOCC5)C[C@@H]4C)nc3c2C(C)C)cn2ncnc2c1C` [Example 350, (S)-5-(7,8-dimethyl-[1,2,4]triazolo[1,5-a]pyridin-6-yl)-6-isopropyl-2-(2-methyl-4-(tetrahydro-2H-pyran-4-yl)piperazin-1-yl)-4H-pyrrolo[3,2-d]thiazole], the IC50 came out at 8.11 nM in assay [1], 0.12 nM in assay [2] and 21700 nM in assay [3].

With `Cc1cc(-c2[nH]c3sc(C4CCNCC4)nc3c2C(C)C)cn2ncnc12` [Example 2, 6-isopropyl-5-(8-methyl-[1,2,4]triazolo[1,5-a]pyridin-6-yl)-2-(piperidin-4-yl)-4H-pyrrolo[3,2-d]thiazole], the IC50 was 2.27 nM in assay [1], 5.82 nM in assay [2] and 6560 nM in assay [3].

Take `Cc1c(-c2[nH]c3sc(C4CCC(NC5CCS(=O)(=O)C5)CC4)nc3c2C(C)C)cn2ncnc2c1C` (racemic) [Example 230, 3-((4-(5-(7,8-dimethyl-[1,2,4]triazolo[1,5-a]pyridin-6-yl)-6-isopropyl-4H-pyrrolo[3,2-d]thiazol-2-yl)cyclohexyl)amino)tetrahydrothiophene 1,1-dioxide]: the IC50 was determined as 4.92 nM in assay [1], 1.5 nM in assay [2] and 43500 nM in assay [3].

For `COc1cc(-c2[nH]c3sc(C4CCC(NC5(C)COC5)CC4)nc3c2C(C)C)cn2ncnc12` (single isomer, unassigned) [Example 71, N-(4-(6-isopropyl-5-(8-methoxy-[1,2,4]triazolo[1,5-a]pyridin-6-yl)-4H-pyrrolo[3,2-d]thiazol-2-yl)cyclohexyl)-3-methyloxetan-3-amine], the half-inhibitory concentration (IC50) turned out to be 6.92 nM in assay [1], 19 nM in assay [2] and 5810 nM in assay [3].

Turning to `CCC1(NC2CCC(c3nc4c(C(C)C)c(-c5cc(OC)c6ncnn6c5)[nH]c4s3)CC2)COC1` (single isomer, unassigned) [Example 95, 3-ethyl-N-(4-(6-isopropyl-5-(8-methoxy-[1,2,4]triazolo[1,5-a]pyridin-6-yl)-4H-pyrrolo[3,2-d]thiazol-2-yl)cyclohexyl)oxetan-3-amine], the IC50 was 11.7 nM in assay [1], 23.8 nM in assay [2] and 43200 nM in assay [3].

Take `COc1cc(-c2[nH]c3sc(C4CCC(NCC(C)(C)O)CC4)nc3c2C(C)C)cn2ncnc12` (single isomer, unassigned) [Example 85, 1-((4-(6-isopropyl-5-(8-methoxy-[1,2,4]triazolo[1,5-a]pyridin-6-yl)-4H-pyrrolo[3,2-d]thiazol-2-yl)cyclohexyl)amino)-2-methylpropan-2-ol]: the IC50 in assay [1] stood at 2.66 nM; in assay [2] it was 17.5 nM; in assay [3], 6910 nM.

On to `CCN1CCC(c2nc3c(C(C)C)c(-c4cn5ncnc5c(C)c4C)[nH]c3s2)CC1` [Example 50, 5-(7,8-dimethyl-[1,2,4]triazolo[1,5-a]pyridin-6-yl)-2-(1-ethylpiperidin-4-yl)-6-isopropyl-4H-pyrrolo[3,2-d]thiazole], for which the values for the IC50 in assay [1], in assay [2] and in assay [3] were 1.27 nM, 2.74 nM and 17300 nM, respectively.

As for `COc1cc(-c2[nH]c3sc(C4CCC(NC[C@@H](F)C(C)(C)O)CC4)nc3c2C(C)C)cn2ncnc12` (single isomer, unassigned) [Example 91], the IC50 in assay [1] is 4.01 nM; in assay [2] it was 8.12 nM; in assay [3], 6720 nM.

For the molecule `COC1CN(C2CCC(c3nc4c(C(C)C)c(-c5cn6ncnc6cc5C)[nH]c4s3)CC2)C1` (single isomer, unassigned) [Example 151, 6-isopropyl-2-(4-(3-methoxyazetidin-1-yl)cyclohexyl)-5-(7-methyl-[1,2,4]triazolo[1,5-a]pyridin-6-yl)-4H-pyrrolo[3,2-d]thiazole], the figures for the IC50 in assay [1], in assay [2] and in assay [3] were 49.2 nM, 60 nM and 23400 nM, respectively.

Take `Cc1c(-c2[nH]c3sc(C(=O)N4CCS(=O)(=O)CC4)nc3c2C(C)C)cn2ncnc2c1C` [Example 373, (5-(7,8-dimethyl-[1,2,4]triazolo[1,5-a]pyridin-6-yl)-6-isopropyl-4H-pyrrolo[3,2-d]thiazol-2-yl)(1,1-dioxidothiomorpholino)methanone]: the IC50 in assay [1] stood at 81.9 nM; in assay [2] it was 34.5 nM; in assay [3] it was 42100 nM.

Take `COc1cc(-c2[nH]c3sc(C4CCC(NC(C)C)CC4)nc3c2C(C)C)cn2ncnc12` (single isomer, unassigned) [Example 78, N-isopropyl-4-(6-isopropyl-5-(8-methoxy-[1,2,4]triazolo[1,5-a]pyridin-6-yl)-4H-pyrrolo[3,2-d]thiazol-2-yl)cyclohexan-1-amine]: the IC50 in assay [1] was found to be 0.59 nM; in assay [2], 1.64 nM; in assay [3] it was 2870 nM.
